Experimental data published in the NIST ThermoML archive (doi:10.1021/acs.jced.8b00939).
± gives the expanded uncertainty stated by the source. Values belong to the compound of their own block, whether it stands above or below them.

Assays:
[1] = 298.15 K, 100 kPa, Liquid; for viscosity: Falling or rolling sphere viscometry; for mass density: Vibrating tube method
[2] = wn = mass fraction of the nth substance listed; settings: 298.2 K, 100 kPa, Liquid; for viscosity: Falling or rolling sphere viscometry; for mass density: Vibrating tube method
[3] = xn = mol fraction of the nth substance listed; settings: 298.2 K, 100 kPa, Liquid, x1 = 0.0843

Structure (SMILES): C=CCc1ccc(O)c(OC)c1 [2-hydroxy-5-allylanisole]
- viscosity [1]: 6.98 ± 0.08 mPa·s
- mass density [1]: 1062 ± 2 kg/m3

Structure (SMILES): CCO [ethanol]
- viscosity [1]: 1.13 ± 0.01 mPa·s
- mass density [1]: 785.1 ± 1.6 kg/m3

Structure (SMILES): C=CC(C)(CCC=C(C)C)OC(C)=O (stereo not drawn) [linalool acetate]
- viscosity [1]: 2.3 ± 0.03 mPa·s
- mass density [1]: 898.6 ± 1.8 kg/m3

Structure (SMILES): C=CC(C)(O)CCC=C(C)C (stereo not drawn) [3,7-dimethyl-1,6-octadien-3-ol]
- viscosity [1]: 4.35 ± 0.05 mPa·s
- mass density [1]: 857.3 ± 1.7 kg/m3

Structure (SMILES): CCO [ethanol] + O
- viscosity ([2]; w2 = 0.061): 1.31 ± 0.02 mPa·s
- viscosity ([2]; w2 = 0.124): 1.46 ± 0.02 mPa·s
- viscosity ([2]; w2 = 0.172): 1.64 ± 0.04 mPa·s
- viscosity ([2]; w2 = 0.233): 1.8 ± 0.03 mPa·s
- viscosity ([2]; w2 = 0.276): 1.87 ± 0.02 mPa·s
- viscosity ([2]; w2 = 0.34): 1.9 ± 0.1 mPa·s
- viscosity ([2]; w2 = 0.41): 2.19 ± 0.15 mPa·s
- viscosity ([2]; w2 = 0.5): 2.31 ± 0.03 mPa·s
- viscosity ([2]; w2 = 0.62): 2.34 ± 0.02 mPa·s
- mass density ([2]; w2 = 0.061): 802.5 ± 1.9 kg/m3
- mass density ([2]; w2 = 0.124): 819.5 ± 2 kg/m3
- mass density ([2]; w2 = 0.172): 833.4 ± 3.1 kg/m3
- mass density ([2]; w2 = 0.233): 848.2 ± 3.3 kg/m3
- mass density ([2]; w2 = 0.276): 857.9 ± 2.6 kg/m3
- mass density ([2]; w2 = 0.34): 861.8 ± 9 kg/m3
- mass density ([2]; w2 = 0.41): 887.3 ± 18 kg/m3
- mass density ([2]; w2 = 0.5): 908.8 ± 4.9 kg/m3
- mass density ([2]; w2 = 0.62): 935.2 ± 9 kg/m3

The next lines start with the values.

- viscosity [1]: 0.87 ± 0.01 mPa·s
- mass density [1]: 839.1 ± 1.7 kg/m3
Structure (SMILES): C=C(C)[C@H]1CC=C(C)CC1 [(R)-1-methyl-4-(1-methylethenyl)cyclohexene]

- viscosity ([3]; Falling or rolling sphere viscometry): 5.87 ± 0.07 mPa·s
- mass density ([3]; Vibrating tube method): 897.1 ± 1.8 kg/m3
Structure (SMILES): C/C1=C\CC/C(C)=C/CC(C)(C)/C=C/C1 [(E,E,E)-2,6,6,9-tetramethyl-1,4,8-cycloundecatriene] + C=C1CC/C=C(\C)CC[C@@H]2[C@@H]1CC2(C)C

- viscosity [1]: 4.23 ± 0.04 mPa·s
- mass density [1]: 1031 ± 2 kg/m3
Structure (SMILES): C=CCc1ccc(OC)c(OC)c1 [methyleugenol]

- viscosity [1]: 0.89 ± 0.01 mPa·s
Structure (SMILES): O [water]
